“And” between values parts separate entries of the source, which are not always exact repeats. Equal entries are not always repeated. Where two headings read alike, the source gives them in different places.
Columns and labels:
ADRα1A = experiment: PBK modelling-based reverse dosimetry of in vitro EC50 to ED50, ADRα1A; settings: predicted human oral ED50 from in vitro EC50 (Pinckaers et al. [2024]) and modelled Cmax plasma venous
Excerpt: (§1) The in vitro effect concentrations (EC50), for activation of the α1A, α1B, α1D, α2A, α2B, β1 and β2 ADR activation and the activation of TAAR1, were obtained from our previous study (Pinckaers et al. [2024]).

TAAR1 = experiment: PBK modelling-based reverse dosimetry of in vitro EC50 to ED50, TAAR1; design: species or system human; settings: for TAAR1 ED50: predicted human oral ED50 from in vitro EC50 (Pinckaers et al. [2024]) and modelled Cmax plasma venous; for dose needed to reach internal effect concentrations, times lower than the dose of higenamine: TAAR1, Fig. 6F
Excerpt: as §1

ADRα1D = experiment: PBK modelling-based reverse dosimetry of in vitro EC50 to ED50, ADRα1D; settings: predicted human oral ED50 from in vitro EC50 (Pinckaers et al. [2024]) and modelled Cmax plasma venous
Excerpt: as §1

[1] = In vitro hepatic clearance by human liver S9 (compound depletion); format: in vitro ADME; settings: for Predicted intrinsic hepatic metabolic clearance CLmet: CLint,u scaled to a whole liver, 121 mg HLS9/g liver; for Predicted intrinsic hepatic metabolic clearance CLmet / k el at 1 µM / microsomal CLint at 1 µM: human; for metabolism in incubations without co-factor mix: HLS9 without co-factor mix; for k el at 1 µM: pH 7.4
Procedure: In vitro intrinsic hepatic clearance (CLint) values of the phenethylamine analogues were determined in experiments with pooled human liver S9 (HLS9; Corning, Woburn, MA, USA and Gibco, USA), by measuring the rate of compound depletion. Stocks of 1 mM PEA compounds were prepared in DMSO and stocks of 10 mg/mL alamethicin were prepared in methanol. The final incubation mixtures consisted of 1 µM of PEA compound (0.1% DMSO) in 100 mM potassium phosphate buffer with 5 mM magnesium chloride (pH 7.4) supplemented with 0.025 mg/mL alamethicin (0.25% methanol) and 0.1–2 mg/mL HLS9. […] Incubation mixtures were first pre-incubated at 37 °C in a shaking incubator at 300 rpm for 5 min. After 5 min, the reaction was initiated by adding a co-factor mix in supplemented buffer with final concentrations of 3 mM nicotinamide adenine dinucleotide phosphate (NADPH; for oxidation, reduction and hydrolysis), 5 mM uridine diphosphate glucuronic acid (UDPGA; for glucuronidation), 0.2 mM adenosine 3’-phosphate 5’-phosphosulfate lithium salt hydrate (PAPS; for sulfation) and 0.2 mM S-(5’-Adenosyl)-L-methionine p-toluenesulfonate salt (SAM; for methylation). The final incubation volume was 100 µL and incubations were performed in 1.5 mL Safe-Lock Eppendorf tubes (Eppendorf) in a shaking incubator (300 rpm) at 37 °C (Eppendorf Thermomixer). Incubations were terminated by adding 100 µL ice-cold acetonitrile after, 0, 2.5, 5, 10, 20, 40 and 60 min. Then, samples were vortexed, put on ice and stored at -20 °C until the day of the LC–MS/MS analysis. Controls of incubation mixtures without HLS9 or mixtures without co-factors were also included. Two independent experiments, both in duplicate, were performed on different days. On the day of the LC–MS/MS analysis, samples were thawed and centrifuged at 15,000 rpm for 10 min. The supernatant was collected in glass insert vials for LC injection (BGB Analytik, Harderwijk, The Netherlands). Details on the methods of the LC–MS/MS analysis are described in Sect. "LC–MS/MS analysis". After determining the PEA (analogue) amount at the different time points, the CLint was calculated. The natural logarithm of compound concentrations was plotted against time and the slope of this curve represented the elimination rate constant k (in 1/min). The half-life (t1/2 in minutes) was calculated by: ln (2)/k (in 1/min). The volume of incubation (V) in µL/mg protein was determined by: 1000 / HLS9 concentration (in mg/mL). Finally, CLint could be calculated by: CLintμL/min/mg protein=VμL/mg protein∗ln2/t1/2min.
The fraction unbound in these in vitro liver clearance incubations was calculated with the method of (Hallifax and Houston [2006]) in which unspecific binding in HLS9 incubations was assumed to be the same as in liver microsomal incubations. The in vitro obtained HLS9 CLint values were corrected for protein binding in the HLS9 incubation and were scaled to a whole liver by using a scaling factor of 121 mg HLS9/g liver (Houston and Galetin [2008]).

ADRβ1 = tested on: ADRβ1; design: method as in Pinckaers et al. [2024]; settings: in vitro ADRβ1 activation assays, Fig. 6E; ref Pinckaers et al. [2024]; cited from earlier work
[2] = human, t = 0.70 h, escalating intravenous infusion 0.5, 1, 2, 4 µg/kg bw/min, 3 min each; ref Feng et al. [2012]; cited from earlier work
[3] = Generic human PBK model with oral dosing, simulated venous plasma concentration; settings: oral dose of 5.7 mg/kg bw, observed data of Rafehi et al. [2019]
Excerpt: The PBK model codes used in this study are presented in the Supplementary data. For the prediction of internal concentrations of the PEA analogues a generic PBK model for humans with oral dosing was used. The PBK model code was adopted from (Jones and Rowland-Yeo [2013]). In general, the body compartments described in the model are: adipose, bone, brain, gut, heart, kidney, liver, lung, muscle, skin, spleen, testes, venous, arterial, plasma and a rest compartment. The concentrations in these compartments were modelled as blood-flow limited, in which it is assumed that the total concentration in the tissue is in equilibrium with the concentration in the systemic circulation at a steady state. The concentration in the circulation is compound-specific and is based on the plasma partition coefficients. The blood flow rate, the tissue volume and the plasma partition coefficients determine the rate of reaching the steady-state (Jones and Rowland-Yeo [2013]). The model was converted to RStudio (version 2023.12.1 Build 402, “Ocean Storm Release”) solving the differential equations with the R rxode2 package (with tidyverse packages). Cliver free was defined as Cliver/Kp liver * Fup instead of Cliver* Fup. […]

[4] = human; ref Faraj et al. [1979]; cited from earlier work
[5] = full reaction mix (HLS9 and co-factor mix), 1 µM, HLS9 concentration per compound (0.10-2 mg/mL), read-out: elimination rate constant k (converted)
[6] = s9, pH 7.4, CLint app corrected for unspecific protein (HLS9) binding, read-out: In vitro CLint,u
[7] = s9, pH 7.4, human liver S9 with co-factor mix (NADPH, UDPGA, PAPS, SAM), 1 µM, read-out: In vitro CLint app

Compound | ADRα1A ED50 (ADRα1A) | TAAR1 ED50 (TAAR1) | ADRα1D ED50 (ADRα1D) | Predicted intrinsic hepatic metabolic clearance CLmet [1] [L/h] | metabolism in incubations without co-factor mix [1] | k el at 1 µM [1, 5] [s⁻¹] | microsomal CLint at 1 µM [1, 6] [µL/min/mg] | microsomal CLint at 1 µM [1, 7] [µL/min/mg] | in vitro potency, times more potent than isopropyloctopamine (ADRβ1) [times] | observed average plasma concentration [2] [ng/mL] | over-prediction of the Cmax plasma compared to the observed average [3] [fold] | metabolic clearance observed in humans [4] [L/h] | dose needed to reach internal effect concentrations, times lower than the dose of higenamine (TAAR1) [times] | k el at 1 µM [1] [s⁻¹]
CNCC(O)c1ccc(O)cc1 (stereo not shown) [p-Synephrine, Synephrine] | 3.32 mg/kg bw | 127 mg/kg bw | 2.35 mg/kg bw | 140 | metabolized in incubations without co-factor mix | 0.000198 | 13.1 | 11.9 |  |  |  |  |  | 
Oc1ccc(CC2NCCc3cc(O)c(O)cc32)cc1 (stereo not shown) [Higenamine, higenamine] | – (compounds with a dash (-) did not activate the receptors in vitro at concentrations ≤ 300 µM) | 6.09 mg/kg bw | – (compounds with a dash (-) did not activate the receptors in vitro at concentrations ≤ 300 µM) | 261 |  | 0.000367 | 24.4 | 22 | 3.5 | 0.5 |  |  |  | 
NCCc1ccc(O)cc1 [Tyramine, tyramine] | – (compounds with a dash (-) did not activate the receptors in vitro at concentrations ≤ 300 µM) | 34.7 mg/kg bw | – (compounds with a dash (-) did not activate the receptors in vitro at concentrations ≤ 300 µM) | 841 | metabolized in incubations without co-factor mix | 0.000322 | 78.8 | 77.2 |  |  | 3.78 | 792 |  | 
NCCc1ccccc1 [Phenethylamine, phenethylamine] | – (compounds with a dash (-) did not activate the receptors in vitro at concentrations ≤ 300 µM) | 67.7 mg/kg bw | – (compounds with a dash (-) did not activate the receptors in vitro at concentrations ≤ 300 µM) | 2598 | metabolized in incubations without co-factor mix | 0.000402 | 243 | 241 |  |  |  |  |  | 
CN(C)CCc1ccc(O)cc1 [Hordenine, hordenine] | – (compounds with a dash (-) did not activate the receptors in vitro at concentrations ≤ 300 µM) | 15.9 mg/kg bw | 11.5 mg/kg bw | 27.0 |  | 7.33e-05 | 2.53 | 2.2 |  |  |  |  |  | 
CNC(C)C(O)c1ccc(O)cc1 (stereo not shown) [Methylsynephrine] | 29.7 mg/kg bw | – (compounds with a dash (-) did not activate the receptors in vitro at concentrations ≤ 300 µM) | – (compounds with a dash (-) did not activate the receptors in vitro at concentrations ≤ 300 µM) | 19.7 |  | 4.97e-05 | 1.84 | 1.49 |  |  |  |  |  | 
CC(CN)c1ccccc1 (stereo not drawn) [β-Methylphenethylamine, β-methylphenethylamine] | – (compounds with a dash (-) did not activate the receptors in vitro at concentrations ≤ 300 µM) | 0.995 mg/kg bw and 0.955 mg/kg bw | – (compounds with a dash (-) did not activate the receptors in vitro at concentrations ≤ 300 µM) | 139 | metabolized in incubations without co-factor mix | 0.000403 | 13 | 12.1 |  |  |  |  | 6.4 | 
CN(C)CCc1ccccc1 [Dimethylphenethylamine, N,N-dimethylphenethylamine] | – (compounds with a dash (-) did not activate the receptors in vitro at concentrations ≤ 300 µM) | 14.0 mg/kg bw | 5.60 mg/kg bw | 245 | metabolized in incubations without co-factor mix | 0.000667 | 23 | 20 |  |  |  |  |  | 
CNCC(O)c1ccccc1 (stereo not shown) [Halostachine, halostachine] | 10.5 mg/kg bw | 88.9 mg/kg bw | 2.52 mg/kg bw | 416 | metabolized in incubations without co-factor mix | 0.000312 | 39 | 37.4 |  |  |  |  |  | 
CC(C)NCC(O)c1ccc(O)cc1 (stereo not shown) [Isopropyloctopamine, isopropyloctopamine] | – (compounds with a dash (-) did not activate the receptors in vitro at concentrations ≤ 300 µM) | 1.26 mg/kg bw | – (compounds with a dash (-) did not activate the receptors in vitro at concentrations ≤ 300 µM) | 27.3 |  |  | 2.56 | 2.15 |  |  |  |  | 4.8 | 7.17e-05

From article PMC12085399, “Quantitative in vitro-to-in vivo extrapolation of human adrenergic and trace amine-associated receptor 1 potencies of pre-workout supplement ingredients using physiologically based kinetic modelling-based reverse dosimetry” (Archives of Toxicology, 2025)
